Where “and” joins values, the source holds several entries; their conditions need not be identical. Identical values can stand only once. Like-named read-outs stand apart in the source and are kept apart here.
Assays:
[1] = test system: NCI-H358 cells (K-Ras G12C); assay: CellTiter-Glo cell viability, NCI-H358; assay type: cell-based, human; settings: read-out: H358 Cell Viability IC50
Procedure: Note—The following protocol describes a procedure for monitoring cell viability of K-Ras mutant cancer cell lines in response to a compound of the invention. Other RAS isoforms may be employed, though the number of cells to be seeded will vary based on cell line used.
Test compounds (132.5 nl) were directly dispensed into the assay plates containing cells. […] On day 5, assay plates and their contents were equilibrated to room temperature for approximately 30 minutes. […] Luminescence was measured using the PerkinElmer Enspire. Data were normalized by the following: (Sample signal/Avg. DMSO)*100. The data were fit using a four-parameter logistic fit.

[2] = test system: Capan-1 cells (K-Ras G12V); assay: CellTiter-Glo cell viability, Capan-1; assay type: cell-based, human; settings: K-Ras G12V, 5-day treatment, read-out: Capan-1 Cell Viability IC50
Method in brief: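 Viability read by luminescence on day 5 after direct compound addition to cells, following ~30 min room-temperature equilibration. Values expressed as percent of mean DMSO signal, curves fitted with a four-parameter logistic model.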

[3] = test system: K-Ras G12C (NCI-H358 cells); assay: Potency assay: pERK in NCI-H358 cells; assay type: cell-based, human; settings: NCI-H358 cells, 4 hours, read-out: pERK EC50 (H358 KRAS G12C)
Method in brief: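 Cells plated the day before were exposed for 4 h at 37° C, 5% CO2 to a 10-point, 3-fold DMSO dilution series (10 mM top stock), in duplicate. Phospho-ERK was read by AlphaLISA SureFire Ultra or by In-Cell Western with DRAQ5 DNA stain, and IC50 came from a 4-parameter sigmoidal fit.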

KRAS G12C = KRAS G12C (Homo sapiens (Human), UniProt P01116+P62937, G12C); assay: Ras-Raf disruption/FRET/MOA assay (BRAF RBD, Cyclophilin A); assay type: biochemical; settings: read-out: KRAS G12C FRET IC50
Method in brief: (§1)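 TR-FRET readout: anti-His Eu-W1024 (10 nM) and anti-GST allophycocyanin (50 nM) added after 3 h, 25° C compound incubation, then 1.5 h more. Decrease in FRET ratio versus DMSO wells marks Ras:RAF disruption; IC50 reported.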

KRAS G12D = KRAS G12D (Homo sapiens (Human), UniProt P01116+P62937, G12D); assay: as above; assay type: biochemical; settings: read-out: KRAS G12D FRET IC50
Method in brief: as §1

KRAS G12S = KRAS G12S (Homo sapiens (Human), UniProt P01116+P62937, G12S); assay: as above; assay type: biochemical; settings: read-out: KRAS G12S FRET IC50
Method in brief: as §1

KRAS G12V = KRAS G12V (Homo sapiens (Human), UniProt P01116+P62937, G12V); assay: as above; assay type: biochemical; settings: read-out: KRAS G12V FRET IC50
Method in brief: as §1

KRAS G13C = KRAS G13C (Homo sapiens (Human), UniProt P01116+P62937, G13C); assay: as above; assay type: biochemical; settings: read-out: KRAS G13C FRET IC50
Method in brief: as §1

KRAS G13D = KRAS G13D (Homo sapiens (Human), UniProt P01116+P62937, G13D); assay: as above; assay type: biochemical; settings: read-out: KRAS G13D FRET data IC50
Method in brief: as §1

KRAS WT = KRAS WT (Homo sapiens (Human), UniProt P01116+P62937); assay: as above; assay type: biochemical; settings: read-out: KRAS WT FRET data IC50
Method in brief: as §1

NRAS G12C = NRAS G12C (Homo sapiens (Human), UniProt P01111+P62937, G12C); assay: as above; assay type: biochemical; settings: read-out: NRAS G12C FRET data IC50
Method in brief: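 TR-FRET read after 1.5 h with 10 nM anti-His Eu-W1024 and 50 nM anti-GST APC, following 3 h at 25 °C of GMPPNP-loaded His6-Ras (12.5 nM), GST-BRAF RBD (50 nM) and Cyclophilin A (25 μM) with compound from 30 μM final, 10 points, 3-fold. IC50 reported; pH 7.3 HEPES, 100 mM NaCl.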

NCI-H358 (K-Ras G12C) = assay: CellTiter-Glo cell viability assay, NCI-H358; assay type: cell-based, human; settings: 5-day treatment, read-out: H358 Cell Viability assay data (K-Ras G12C, IC50)
Method in brief: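 Viability read-out was luminescent (CellTiter-Glo) on day 5 of compound exposure in K-Ras G12C NCI-H358 cells. Values were expressed as percent of mean DMSO signal and fitted with a four-parameter logistic curve.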

[4] = Homo sapiens, NCI-H358, 120 h, K-Ras G12C, 5-day treatment

Sequence of KRAS G12S (P01116 other isoform, or with tags, fused parts or gaps G12S): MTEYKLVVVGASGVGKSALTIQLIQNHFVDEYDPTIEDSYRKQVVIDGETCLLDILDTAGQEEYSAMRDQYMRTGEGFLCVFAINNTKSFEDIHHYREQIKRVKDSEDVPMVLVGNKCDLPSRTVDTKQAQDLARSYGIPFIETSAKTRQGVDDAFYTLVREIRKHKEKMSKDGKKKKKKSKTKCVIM
Sequence of KRAS G12S (P62937 whole entry): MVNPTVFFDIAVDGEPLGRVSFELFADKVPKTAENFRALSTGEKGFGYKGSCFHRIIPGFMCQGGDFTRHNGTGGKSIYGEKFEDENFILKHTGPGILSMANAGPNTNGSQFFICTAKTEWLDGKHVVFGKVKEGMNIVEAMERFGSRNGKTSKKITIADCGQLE
Sequence of KRAS G13C (P01116 other isoform, or with tags, fused parts or gaps G13C): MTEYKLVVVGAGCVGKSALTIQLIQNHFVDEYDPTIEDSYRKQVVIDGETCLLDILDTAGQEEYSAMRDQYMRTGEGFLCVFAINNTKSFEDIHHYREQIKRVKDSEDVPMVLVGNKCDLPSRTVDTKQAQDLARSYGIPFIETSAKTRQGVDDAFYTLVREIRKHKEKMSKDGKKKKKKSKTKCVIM
Sequence of KRAS G13C (P62937 whole entry): as the sequence (P62937 whole entry) above
Sequence of KRAS G12V (P01116 other isoform, or with tags, fused parts or gaps G12V): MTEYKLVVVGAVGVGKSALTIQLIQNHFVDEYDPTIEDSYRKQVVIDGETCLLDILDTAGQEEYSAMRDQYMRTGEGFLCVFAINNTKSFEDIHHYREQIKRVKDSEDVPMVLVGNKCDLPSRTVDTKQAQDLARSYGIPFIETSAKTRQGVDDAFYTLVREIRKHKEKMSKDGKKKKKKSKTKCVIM
Sequence of KRAS G12V (P62937 whole entry): as the sequence (P62937 whole entry) above
Sequence of KRAS WT (P01116 other isoform, or with tags, fused parts or gaps): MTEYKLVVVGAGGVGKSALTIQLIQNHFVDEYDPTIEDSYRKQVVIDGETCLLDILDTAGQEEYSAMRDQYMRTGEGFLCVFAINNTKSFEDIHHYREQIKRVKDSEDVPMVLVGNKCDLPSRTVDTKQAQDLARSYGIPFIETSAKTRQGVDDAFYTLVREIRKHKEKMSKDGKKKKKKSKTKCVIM
Sequence of KRAS WT (P62937 whole entry): as the sequence (P62937 whole entry) above
Sequence of KRAS G13D (P01116 other isoform, or with tags, fused parts or gaps G13D): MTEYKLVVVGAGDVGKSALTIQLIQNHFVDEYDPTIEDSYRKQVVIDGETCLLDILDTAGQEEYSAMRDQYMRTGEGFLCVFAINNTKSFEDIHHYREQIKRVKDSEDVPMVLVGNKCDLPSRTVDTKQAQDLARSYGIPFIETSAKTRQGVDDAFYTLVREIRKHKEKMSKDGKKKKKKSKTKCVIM
Sequence of KRAS G13D (P62937 whole entry): as the sequence (P62937 whole entry) above
Sequence of NRAS G12C (P01111 whole entry G12C): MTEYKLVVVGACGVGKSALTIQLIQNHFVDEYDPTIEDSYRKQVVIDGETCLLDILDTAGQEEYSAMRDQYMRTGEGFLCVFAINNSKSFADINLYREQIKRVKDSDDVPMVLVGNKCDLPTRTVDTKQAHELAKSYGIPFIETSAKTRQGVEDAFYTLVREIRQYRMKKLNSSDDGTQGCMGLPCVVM
Sequence of NRAS G12C (P62937 whole entry): as the sequence (P62937 whole entry) above
Sequence of KRAS G12C (P01116-2 other isoform, or with tags, fused parts or gaps G12C): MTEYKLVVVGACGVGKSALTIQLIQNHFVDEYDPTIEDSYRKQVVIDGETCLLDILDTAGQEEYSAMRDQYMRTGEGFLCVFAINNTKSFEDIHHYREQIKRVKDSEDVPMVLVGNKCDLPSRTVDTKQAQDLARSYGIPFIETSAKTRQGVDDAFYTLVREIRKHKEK
Sequence of KRAS G12C (P62937 whole entry): as the sequence (P62937 whole entry) above
Sequence of KRAS G12D (P01116 other isoform, or with tags, fused parts or gaps G12D): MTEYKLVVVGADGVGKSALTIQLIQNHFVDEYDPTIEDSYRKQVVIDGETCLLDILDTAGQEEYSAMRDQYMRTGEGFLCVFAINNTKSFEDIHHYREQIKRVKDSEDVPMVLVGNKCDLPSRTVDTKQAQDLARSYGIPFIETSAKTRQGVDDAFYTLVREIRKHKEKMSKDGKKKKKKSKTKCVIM
Sequence of KRAS G12D (P62937 whole entry): as the sequence (P62937 whole entry) above

EC50 ([3]; Homo sapiens)	IC50 (KRAS G12C)	IC50 (KRAS G12D)	IC50 (KRAS G12S)	IC50 (KRAS G12V)	IC50 (KRAS G13C)	IC50 (KRAS G13D)	IC50 (KRAS WT)	IC50 (NRAS G12C)	Structure (SMILES)	IC50 ([2]; Homo sapiens, CAPAN-1, 120 h)	other results
< 5000 nM	–	–	–	–	–	–	–	–	CCn1c(-c2cccnc2[C@H](C)OC)c2c3cc(ccc31)-c1cc(O)cc(c1)C[C@H](NC(=O)[C@H](C(C)C)N(C)C(=O)[C@H]1C[C@@H]1O)C(=O)N1CCC[C@H](N1)C(=O)OCC(C)(C)C2 (single isomer, unassigned) [Compound A346]	–	IC50 ([1]; K-Ras G12C, 5-day treatment): 100 to 1000 nM; IC50 [2]: 100 to 1000 nM
< 5000 nM	10 to 100 nM	10 to 100 nM	10 to 100 nM	10 to 100 nM	10 to 100 nM	10 to 100 nM	10 to 100 nM	10 to 100 nM	CCn1c(-c2cccnc2[C@H](C)OC)c2c3cc(ccc31)-c1cc(O)cc(c1)C[C@H](NC(=O)[C@H](C(C)C)N(C)C(=O)[C@H]1CCN(C(=O)[C@H]3CCCN3C)C1)C(=O)N1CCC[C@H](N1)C(=O)OCC(C)(C)C2 [Compound A371]	1000 to 10000 nM	–

Second part, the molecule before the results:

Structure (SMILES)	EC50 ([3]; Homo sapiens)	IC50 (KRAS G12C)	IC50 (KRAS G12D)	IC50 (KRAS G12S)	IC50 (KRAS G12V)	IC50 (KRAS G13C)	IC50 (KRAS G13D)	IC50 (KRAS WT)	IC50 (NRAS G12C)	IC50 ([2]; Homo sapiens, CAPAN-1, 120 h)	other results
CCn1c(-c2cnccc2COC)c2c3cc(ccc31)-c1cc(O)cc(c1)C[C@H](NC(=O)[C@H](C(C)C)N(C)C(=O)C1(C)COC1)C(=O)N1CCC[C@H](N1)C(=O)OCC(C)(C)C2 [Compound A49]	–	100 to 1000 nM	1000 to 10000 nM	1000 to 10000 nM	100 to 1000 nM	1000 to 10000 nM	1000 to 10000 nM	100 to 1000 nM	1000 to 10000 nM	–	IC50 (NCI-H358 (K-Ras G12C); Homo sapiens, NCI-H358, 120 h): > 10000 nM
CCn1c(-c2cnccc2COC)c2c3cc(ccc31)-c1cc(O)cc(c1)C[C@H](NC(=O)[C@H](C(C)C)N(C)C(=O)OC1CCOC1)C(=O)N1CCC[C@H](N1)C(=O)OCC(C)(C)C2 (stereo partly drawn) [Compound A50, oxolan-3-yl-N-[(1S)-1-{[(8S,14S)-22-ethyl-4-hydroxy-21-[4-(methoxymethyl)pyridin-3-yl]-18,18-dimethyl-9,15-dioxo-16-oxa-10,22,28-triazapentacyclo [18.5.2.1^2,6.1^10,14.0^23,27]nonacosa-1 (26),2,4,6 (29),20,23 (27),24-heptaen-8-yl]carbamoyl}-2-methylpropyl]-N-methylcarbamate]	–	–	–	–	–	–	–	–	–	–	IC50 ([1]; Homo sapiens, NCI-H358, 120 h): 1000 to 10000 nM
CCn1c(-c2cccnc2COC)c2c3cc(ccc31)-c1cc(O)cc(c1)C[C@H](NC(=O)[C@H](C(C)C)N(C)C(=O)c1ccc(NC(=O)/C=C/CN(C)C)cn1)C(=O)N1CCC[C@H](N1)C(=O)OCC(C)(C)C2 [Compound A67, (2E)-4-(dimethylamino)-N-(6-{[(1S)-1-{[(8S,14S)-22-ethyl-4-hydroxy-21-[2-(methoxymethyl)pyridin-3-yl]-18,18-dimethyl-9,15-dioxo-16-oxa-10,22,28-triazapentacyclo [18.5.2.1^2,6.1^10,14.0^23,27]nonacosa-1 (26),2,4,6 (29),20,23 (27),24-heptaen-8-yl]carbamoyl}-2-methylpropyl](methyl)carbamoyl}pyridin-3-yl) but-2-enamide]	–	10 to 100 nM	100 to 1000 nM	100 to 1000 nM	100 to 1000 nM	10 to 100 nM	–	–	–	–	IC50 ([1]; K-Ras G12C, 5-day treatment): 1000 to 10000 nM; EC50 [3]: < 5000 nM; IC50 (NCI-H358 (K-Ras G12C)): 100 to 1000 nM
CCn1c(-c2cnccc2COC)c2c3cc(ccc31)-c1cc(O)cc(c1)C[C@H](NC(=O)[C@H](C(C)C)N(C)C(=O)C1CNC1)C(=O)N1CCC[C@H](N1)C(=O)OCC(C)(C)C2 [Compound A87]	< 5000 nM	100 to 1000 nM and 10 to 100 nM	100 to 1000 nM	100 to 1000 nM and 10 to 100 nM	100 to 1000 nM and 1000 to 10000 nM	100 to 1000 nM and 10 to 100 nM	10 to 100 nM and 100 to 1000 nM	10 to 100 nM and 100 to 1000 nM	10 to 100 nM and 100 to 1000 nM	> 10000 nM	IC50 (NCI-H358 (K-Ras G12C); Homo sapiens, NCI-H358, 120 h): 10 to 100 nM
CCn1c(-c2cccnc2[C@H](C)OC)c2c3cc(ccc31)-c1csc(n1)C[C@H](NC(=O)[C@H](C(C)C)N(C)C(=O)O[C@H]1CCN(C)C1)C(=O)N1CCC[C@H](N1)C(=O)OCC(C)(C)C2 [Compound A173]	–	–	–	–	–	–	–	–	–	–	IC50 [1, 4]: 100 to 1000 nM
CCn1c(-c2cccnc2[C@H](C)OC)c2c3cc(ccc31)-c1cc(O)cc(c1)C[C@H](NC(=O)[C@H](C(C)C)N(C)C(=O)[C@H]1C[C@@H]1C)C(=O)N1CCC[C@H](N1)C(=O)OCC(C)(C)C2 [Compound A287]	–	–	–	–	–	–	–	–	–	100 to 1000 nM	IC50 [1, 4]: 100 to 1000 nM

Reference: patent US20250195521A1 (Revolution Medicines, Inc., priority 2020, published 2025)
